In brackets after ≈: the same amount, converted by molar mass. Activity calls are given as the source filed them. No cut-off for these calls is given here.
Key:
[1] = tested on: Mycobacterium tuberculosis; test: Antimicrobial activity against Mycobacterium tuberculosis H37Rv by BACTEC MGIT method; assay type: functional; settings: for MIC: Mycobacterium tuberculosis, H37Rv
Staphylococcus aureus [2] = test: Antimicrobial activity against Staphylococcus aureus MTCC 96 by paper-disk diffusion method; assay type: functional
Aspergillus fumigatus [3] = test: Antimicrobial activity against Aspergillus fumigatus MTCC 343 by agar streak dilution method; assay type: functional
Candida albicans [4] = test: Antimicrobial activity against Candida albicans MTCC 183 by agar streak dilution method; assay type: functional
Pseudomonas aeruginosa [5] = test: Antimicrobial activity against Pseudomonas aeruginosa MTCC 741 by agar streak dilution method; assay type: functional
Klebsiella pneumoniae [6] = test: Antimicrobial activity against Klebsiella pneumoniae MTCC 109 by paper disk diffusion method; assay type: functional
Staphylococcus aureus [7] = test: Antimicrobial activity against Staphylococcus aureus MTCC 96 by agar streak dilution method; assay type: functional
Bacillus cereus [8] = test: Antimicrobial activity against Bacillus cereus MTCC 619 by agar streak dilution method; assay type: functional
Proteus vulgaris [9] = test: Antimicrobial activity against Proteus vulgaris MTCC 1771 by paper disk diffusion method; assay type: functional
Aspergillus clavatus [10] = test: Antimicrobial activity against Aspergillus clavatus MTCC 1323 by agar streak dilution method; assay type: functional
Proteus vulgaris [11] = test: Antimicrobial activity against Proteus vulgaris MTCC 1771 by agar streak dilution method; assay type: functional
Pseudomonas aeruginosa [12] = test: Antimicrobial activity against Pseudomonas aeruginosa MTCC 741 at 100 ug/ml by paper disk diffusion method; assay type: functional, organism-based
Bacillus cereus [13] = test: Antimicrobial activity against Bacillus cereus MTCC 619 by paper disk diffusion method; assay type: functional
Escherichia coli [14] = test: Antimicrobial activity against Escherichia coli MTCC 739 by paper disk diffusion method; assay type: functional
Aspergillus niger [15] = test: Antimicrobial activity against Aspergillus niger MTCC 282 by paper-disk diffusion method; assay type: functional
Salmonella typhi [16] = test: Antimicrobial activity against Salmonella enterica subsp. enterica serovar Typhi MTCC 733 by paper disk diffusion method; assay type: functional
Klebsiella pneumoniae [17] = test: Antimicrobial activity against Klebsiella pneumoniae MTCC 109 by agar streak dilution method; assay type: functional
Shigella flexneri [18] = test: Antimicrobial activity against Shigella flexneri MTCC 1457 by paper disk diffusion method; assay type: functional
Aspergillus clavatus [19] = test: Antimicrobial activity against Aspergillus clavatus MTCC 1323 by paper disk diffusion method; assay type: functional
Pseudomonas aeruginosa [20] = test: Antimicrobial activity against Pseudomonas aeruginosa MTCC 741 by paper disk diffusion method; assay type: functional
Shigella flexneri [21] = test: Antimicrobial activity against Shigella flexneri MTCC 1457 by agar streak dilution method; assay type: functional
Escherichia coli [22] = test: Antimicrobial activity against Escherichia coli MTCC 739 by agar streak dilution method; assay type: functional
Candida albicans [23] = test: Antimicrobial activity against Candida albicans MTCC 183 by paper-disk diffusion method; assay type: functional
Aspergillus niger [24] = test: Antimicrobial activity against Aspergillus niger MTCC 282 by agar streak dilution method; assay type: functional
Salmonella typhi [25] = test: Antimicrobial activity against Salmonella enterica subsp. enterica serovar Typhi MTCC 733 by agar streak dilution method; assay type: functional
Aspergillus fumigatus [26] = test: Antimicrobial activity against Aspergillus fumigatus MTCC 343 by paper-disk diffusion method; assay type: functional
[27] = tested on: Mycobacterium tuberculosis; test: Antimicrobial activity against Mycobacterium tuberculosis H37Rv by Lowenstein and Jensen method; assay type: functional; settings: for MIC: Mycobacterium tuberculosis, H37Rv
[28] = tested on: Mycobacterium tuberculosis; test: Antimicrobial activity against Mycobacterium tuberculosis H37Rv at 100 ug/ml by BACTEC MGIT method; assay type: functional, organism-based

Compound	inhibition (INH) [1] [%]	MIC [1] [µg/mL]	inhibition zone (IZ) (Staphylococcus aureus [2]) [mm]	MIC (Aspergillus fumigatus [3]) [µg/mL]	MIC (Candida albicans [4]) [µg/mL]	inhibition zone (IZ) (Klebsiella pneumoniae [6]) [mm]	MIC (Staphylococcus aureus [7]) [µg/mL]	MIC (Bacillus cereus [8]) [µg/mL]	MIC (Proteus vulgaris [11]) [µg/mL]	inhibition zone (IZ) (Pseudomonas aeruginosa [12])	inhibition zone (IZ) (Escherichia coli [14]) [mm]	inhibition zone (IZ) (Aspergillus niger [15]) [mm]	inhibition zone (IZ) (Salmonella typhi [16]) [mm]	inhibition zone (IZ) (Shigella flexneri [18]) [mm]	inhibition zone (IZ) (Pseudomonas aeruginosa [20]) [mm]	MIC (Shigella flexneri [21]) [µg/mL]	inhibition zone (IZ) (Candida albicans [23]) [mm]	MIC (Aspergillus niger [24]) [µg/mL]	MIC (Salmonella typhi [25]) [µg/mL]	inhibition zone (IZ) (Aspergillus fumigatus [26]) [mm]	further results
CO[C@H]1/C=C/O[C@@]2(C)Oc3c(C)c(O)c4c(O)c(c(/C=N/N5CCN(C)CC5)c(O)c4c3C2=O)NC(=O)/C(C)=C\C=C\[C@H](C)[C@H](O)[C@@H](C)[C@@H](O)[C@@H](C)[C@H](OC(C)=O)[C@@H]1C [RIFAMPIN]	99	0.25 (≈ 0.304 µM)																			
COc1ccc(CN2CCN(c3nc(Nc4ccc(C#N)c(C(F)(F)F)c4)nc(Oc4ncnc5ccccc45)n3)CC2)c(OC)c1OC	99	6.25 (≈ 9.28 µM)	29	6.25 (≈ 9.28 µM)	12.5 (≈ 18.6 µM)	26	3.12 (≈ 4.63 µM)	3.12 (≈ 4.63 µM)	6.25 (≈ 9.28 µM)	inactive	28	25	25	24	26	25 (≈ 37.1 µM)	26	6.25 (≈ 9.28 µM)	25 (≈ 37.1 µM)	25	MIC (Pseudomonas aeruginosa [5]): 12.5 µg/mL (≈ 18.6 µM); inhibition zone (IZ) (Proteus vulgaris [9]): 25 mm; MIC (Aspergillus clavatus [10]): 6.25 µg/mL (≈ 9.28 µM); inhibition zone (IZ) (Bacillus cereus [13]): 27 mm; MIC (Klebsiella pneumoniae [17]): 6.25 µg/mL (≈ 9.28 µM); inhibition zone (IZ) (Aspergillus clavatus [19]): 25 mm; MIC (Escherichia coli [22]): 6.25 µg/mL (≈ 9.28 µM); inhibition (percent inhibition) [27]: 99%; MIC [27]: 6.25 µg/mL (≈ 9.28 µM)
N#Cc1ccc(Nc2nc(Oc3ncnc4ccccc34)nc(N3CCN(c4ccc(F)cc4)CC3)n2)cc1C(F)(F)F		> 6.25	28	12.5 (≈ 21.3 µM)	6.25 (≈ 10.6 µM)	23	6.25 (≈ 10.6 µM)	12.5 (≈ 21.3 µM)	12.5 (≈ 21.3 µM)	inactive	25	25	27	23	28	50 (≈ 85.1 µM)	27	12.5 (≈ 21.3 µM)	6.25 (≈ 10.6 µM)	24	MIC (Pseudomonas aeruginosa [5]): 6.25 µg/mL (≈ 10.6 µM); inhibition zone (IZ) (Proteus vulgaris [9]): 24 mm; inhibition [28]: inactive; MIC (Aspergillus clavatus [10]): 12.5 µg/mL (≈ 21.3 µM); inhibition zone (IZ) (Bacillus cereus [13]): 26 mm; MIC (Klebsiella pneumoniae [17]): 25 µg/mL (≈ 42.6 µM); inhibition zone (IZ) (Aspergillus clavatus [19]): 24 mm; MIC (Escherichia coli [22]): 25 µg/mL (≈ 42.6 µM); inhibition (percent inhibition) [27]: 98%; MIC [27]: 12.5 µg/mL (≈ 21.3 µM)
N#Cc1ccc(Nc2nc(Oc3ncnc4ccccc34)nc(N3CCN(c4cccc(Cl)c4Cl)CC3)n2)cc1C(F)(F)F	99	6.25 (≈ 9.79 µM)	29	25 (≈ 39.2 µM)	6.25 (≈ 9.79 µM)	24	3.12 (≈ 4.89 µM)	6.25 (≈ 9.79 µM)	6.25 (≈ 9.79 µM)	inactive	24	25	26	26	24	12.5 (≈ 19.6 µM)	27	6.25 (≈ 9.79 µM)	12.5 (≈ 19.6 µM)	23	MIC (Pseudomonas aeruginosa [5]): 12.5 µg/mL (≈ 19.6 µM); inhibition zone (IZ) (Proteus vulgaris [9]): 26 mm; MIC (Aspergillus clavatus [10]): 25 µg/mL (≈ 39.2 µM); inhibition zone (IZ) (Bacillus cereus [13]): 25 mm; MIC (Klebsiella pneumoniae [17]): 50 µg/mL (≈ 78.3 µM); inhibition zone (IZ) (Aspergillus clavatus [19]): 23 mm; MIC (Escherichia coli [22]): 50 µg/mL (≈ 78.3 µM); inhibition (percent inhibition) [27]: 99%; MIC [27]: 6.25 µg/mL (≈ 9.79 µM)
NNC(=O)c1ccncc1 [ISONIAZID]		0.2 (≈ 1.46 µM)																			
N#Cc1ccc(Nc2nc(Oc3ncnc4ccccc34)nc(N3CCN(c4cccc(C(F)(F)F)c4)CC3)n2)cc1C(F)(F)F	99	6.25 (≈ 9.8 µM)	29	12.5 (≈ 19.6 µM)	6.25 (≈ 9.8 µM)	25	3.12 (≈ 4.89 µM)	3.12 (≈ 4.89 µM)	6.25 (≈ 9.8 µM)	inactive	25	26	25	27	28	12.5 (≈ 19.6 µM)	27	3.12 (≈ 4.89 µM)	25 (≈ 39.2 µM)	24	MIC (Pseudomonas aeruginosa [5]): 6.25 µg/mL (≈ 9.8 µM); inhibition zone (IZ) (Proteus vulgaris [9]): 26 mm; MIC (Aspergillus clavatus [10]): 6.25 µg/mL (≈ 9.8 µM); inhibition zone (IZ) (Bacillus cereus [13]): 28 mm; MIC (Klebsiella pneumoniae [17]): 6.25 µg/mL (≈ 9.8 µM); inhibition zone (IZ) (Aspergillus clavatus [19]): 25 mm; MIC (Escherichia coli [22]): 25 µg/mL (≈ 39.2 µM); inhibition (percent inhibition) [27]: 99%; MIC [27]: 6.25 µg/mL (≈ 9.8 µM)
N#Cc1ccc(Nc2nc(Oc3ncnc4ccccc34)nc(N3CCN(c4ccccc4Cl)CC3)n2)cc1C(F)(F)F		> 6.25	26	12.5 (≈ 20.7 µM)	12.5 (≈ 20.7 µM)	23	12.5 (≈ 20.7 µM)	50 (≈ 82.8 µM)	25 (≈ 41.4 µM)	inactive	22	22	26	27	24	12.5 (≈ 20.7 µM)	25	50 (≈ 82.8 µM)	6.25 (≈ 10.3 µM)	24	MIC (Pseudomonas aeruginosa [5]): 25 µg/mL (≈ 41.4 µM); inhibition zone (IZ) (Proteus vulgaris [9]): 24 mm; inhibition [28]: inactive; MIC (Aspergillus clavatus [10]): 50 µg/mL (≈ 82.8 µM); inhibition zone (IZ) (Bacillus cereus [13]): 24 mm; MIC (Klebsiella pneumoniae [17]): 100 µg/mL (≈ 166 µM); inhibition zone (IZ) (Aspergillus clavatus [19]): 22 mm; MIC (Escherichia coli [22]): 100 µg/mL (≈ 166 µM); inhibition (percent inhibition) [27]: 97%; MIC [27]: 25 µg/mL (≈ 41.4 µM)
CC[C@@H](CO)NCCN[C@@H](CC)CO [ETHAMBUTOL]	99	3.12 (≈ 15.3 µM)																			
NC(=O)c1cnccn1 [PYRAZINAMIDE]	99	6.25 (≈ 50.8 µM)																			
CC1CC(C)CN(c2nc(Nc3ccc(C#N)c(C(F)(F)F)c3)nc(Oc3ncnc4ccccc34)n2)C1 (configuration not stated)	99	6.25 (≈ 12 µM)	27	25 (≈ 48 µM)	25 (≈ 48 µM)	26	6.25 (≈ 12 µM)	12.5 (≈ 24 µM)	6.25 (≈ 12 µM)	inactive	27	22	26	22	27	100 (≈ 192 µM)	24	25 (≈ 48 µM)	25 (≈ 48 µM)	23	MIC (Pseudomonas aeruginosa [5]): 12.5 µg/mL (≈ 24 µM); inhibition zone (IZ) (Proteus vulgaris [9]): 26 mm; MIC (Aspergillus clavatus [10]): 6.25 µg/mL (≈ 12 µM); inhibition zone (IZ) (Bacillus cereus [13]): 26 mm; MIC (Klebsiella pneumoniae [17]): 6.25 µg/mL (≈ 12 µM); inhibition zone (IZ) (Aspergillus clavatus [19]): 25 mm; MIC (Escherichia coli [22]): 6.25 µg/mL (≈ 12 µM); inhibition (percent inhibition) [27]: 99%; MIC [27]: 6.25 µg/mL (≈ 12 µM)
O=C(O)c1cn(C2CC2)c2cc(N3CCNCC3)c(F)cc2c1=O [CIPROFLOXACIN]			30		1.56 (≈ 4.71 µM)	33	1.56 (≈ 4.71 µM)	0.39 (≈ 1.18 µM)	0.39 (≈ 1.18 µM)	inactive	32	30	30	32	33	1.56 (≈ 4.71 µM)	33	1.56 (≈ 4.71 µM)	0.39 (≈ 1.18 µM)	29	
N#Cc1ccc(Nc2nc(Oc3ncnc4ccccc34)nc(N3CCN(C(c4ccccc4)c4ccc(Cl)cc4)CC3)n2)cc1C(F)(F)F (configuration not stated)	99	6.25 (≈ 9 µM)	29	12.5 (≈ 18 µM)	25 (≈ 36 µM)	24	6.25 (≈ 9 µM)	6.25 (≈ 9 µM)	50 (≈ 72 µM)	inactive	26	24	27	24	28	50 (≈ 72 µM)	24	12.5 (≈ 18 µM)	6.25 (≈ 9 µM)	24	MIC (Pseudomonas aeruginosa [5]): 6.25 µg/mL (≈ 9 µM); inhibition zone (IZ) (Proteus vulgaris [9]): 23 mm; MIC (Aspergillus clavatus [10]): 12.5 µg/mL (≈ 18 µM); inhibition zone (IZ) (Bacillus cereus [13]): 26 mm; MIC (Klebsiella pneumoniae [17]): 25 µg/mL (≈ 36 µM); inhibition zone (IZ) (Aspergillus clavatus [19]): 24 mm; MIC (Escherichia coli [22]): 25 µg/mL (≈ 36 µM); inhibition (percent inhibition) [27]: 99%; MIC [27]: 6.25 µg/mL (≈ 9 µM)

Reference: ChEMBL document CHEMBL3044572, “Discovery of 2-(4-cyano-3-trifluoromethylphenyl amino)-4-(4-quinazolinyloxy)-6-piperazinyl(piperidinyl)-s-triazines as potential antibacterial agents” (2012)
